Assay results: patent publication US8906911B2, “Chemokine receptor antagonists” (AbbVie Inc., priority 2012, dated 2014)
Read-outs that look alike come from different tables or passages of the source.

How the values were obtained:
rat CCR2 = rat CCR2 (Rattus norvegicus (Rat), UniProt O55193); test: Inhibition of native agonist (rat MCP-1)-induced intracellular calcium release, calcium flux assay in CHO cells expressing rat CCR2 and Gα16; type: cell-based; conditions: read-out: rCCR2 Kb
Excerpt: (§1) CHO cells expressing human CCR2B were generated as follows. cDNA for human CCR2B (cloned from human blood) was cloned into plasmid pcDNA3.1 (from Invitrogen). The resulting plasmids were separately transfected into CHO cells expressing human Gα16 (from Molecular Devices). […] CHO cells expressing rat CCR2 were generated as follows. cDNA for rat CCR2 (cloned from rat macrophage) was cloned into plasmid pEF-flag (from Chinese Academy of Science). The resulting plasmids were transfected into CHO cells expressing human Gα16 (from […]).
(§2) Inhibition of Native Agonist-Induced Intracellular Calcium Release in Cells Expressing hCCR2B or rCCR2
(§3) Calcium flux assays were performed in CHO cells expressing human CCR2B and Gα16 coupling protein, or rat CCR2 and Gα16 coupling protein. All compounds were dissolved in DMSO and assays run at a final DMSO concentration of 0.25% (v/v). Human MCP-1 was purchased from PeproTech and used at a final assay concentration of 2 nM, while rat MCP-1 was purchased from R&D and used at a final assay concentration of 4 nM. Assays with cells expressing human CCR2B were performed with human MCP-1, while assays with cells expressing rat CCR2 were performed with rat MCP-1.
(§4) Briefly, cells were cultured overnight in a microtiter plate at 8000 per well. The next day, the resultant adherent cells were incubated in assay buffer (20 mM HEPES, pH 7.4, 0.1% bovine serum albumin, and 2.5 mM probenocid in Hank's Buffered Saline Solution) containing Calcium 4 dye (Molecular Probes) at 37° C. for 60 minutes. Calcium flux assays were performed on a FLIPR^Tetra instrument (Molecular Devices) by adding compound to the cells followed by addition of native agonist and measuring the change in fluorescence as a function of time. Maximal and minimal values for fluorescence were determined using native agonist (2 nM MCP-1) for human or rat CCR2, or buffer addition, respectively. Fluorescence values were used to calculate the percent inhibition at a given compound concentration and the data fit to a sigmoidal curve in a semi-log plot to determine IC50 values. The Kb value is calculated as Kb=IC50/(1+[agonist]/EC50), where [agonist] is the concentration of agonist used and EC50 is the agonist potency determined in the previous experiments. Mean Kb values and IC50 of the compounds assayed are reported in Table 2 and Table 3 respectively.

human CCR2B = human CCR2B (Homo sapiens (Human), UniProt P41597); test: Inhibition of native agonist (human MCP-1)-induced intracellular calcium release, calcium flux assay in CHO cells expressing human CCR2B and Gα16; type: cell-based; conditions: for IC50: read-out: hCCR2B IC50; for Kb: read-out: hCCR2B Kb
Chain of human CCR2B (P41597 other isoform, or with tags, fused parts or gaps): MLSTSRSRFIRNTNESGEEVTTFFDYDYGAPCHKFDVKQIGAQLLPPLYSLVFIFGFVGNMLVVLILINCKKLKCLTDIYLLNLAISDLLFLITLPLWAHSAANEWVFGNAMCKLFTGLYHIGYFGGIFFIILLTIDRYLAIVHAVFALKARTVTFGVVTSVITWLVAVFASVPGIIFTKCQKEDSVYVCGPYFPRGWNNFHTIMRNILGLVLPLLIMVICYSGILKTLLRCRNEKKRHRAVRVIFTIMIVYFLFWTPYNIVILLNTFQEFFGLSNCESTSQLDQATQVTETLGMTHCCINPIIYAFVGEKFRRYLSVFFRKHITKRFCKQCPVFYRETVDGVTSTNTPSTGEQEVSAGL
Excerpt: as §1, §2, §3, §4

Chain of rat CCR2 (O55193 whole entry): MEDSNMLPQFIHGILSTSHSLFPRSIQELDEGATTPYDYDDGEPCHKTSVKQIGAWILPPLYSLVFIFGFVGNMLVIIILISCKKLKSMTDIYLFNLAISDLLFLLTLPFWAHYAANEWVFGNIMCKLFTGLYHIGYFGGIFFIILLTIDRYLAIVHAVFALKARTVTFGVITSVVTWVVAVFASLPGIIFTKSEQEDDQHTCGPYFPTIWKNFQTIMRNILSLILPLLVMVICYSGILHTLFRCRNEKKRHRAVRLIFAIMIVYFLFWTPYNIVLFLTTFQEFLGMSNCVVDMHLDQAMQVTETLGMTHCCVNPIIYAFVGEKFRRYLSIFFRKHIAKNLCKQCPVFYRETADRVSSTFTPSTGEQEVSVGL

Kb (rat CCR2) [µM]	IC50 (human CCR2B; calcium flux, human MCP-1 2 nM) [µM]	Kb (human CCR2B) [µM]	Structure (SMILES)	IC50 (human CCR2B) [µM]
0.317	1.6	0.394	CO[C@@H]1COCC[C@@H]1N[C@@H]1C[C@H]2CCC[C@@]2(C(=O)N2C[C@@H]3C[C@H]2CN3c2nccc(C(F)(F)F)c2C)C1 (racemic) [Example 38, 1,5-anhydro-2,3-dideoxy-4-O-methyl-3-{[(2R,3aR,6aR)-3a-({(1S,4S)-5-[3-methyl-4-(trifluoromethyl)pyridin-2-yl]-2,5-diazabicyclo[2.2.1]hept-2-yl}carbonyl)octahydropentalen-2-yl]amino}-D-erythro-pentitol]	–
0.029	–	–	CO[C@@H]1COCC[C@H]1N[C@@H]1C[C@H]2CCC[C@@]2(C(=O)N2C[C@@H]3C[C@H]2CN3c2cc(C(F)(F)F)cnn2)C1 (stereo in doubt) [Example 6]	–
–	> 50	–	CN(C1CCOCC1)C1CC2CCCC2(C(=O)N2CCN(c3ccc(C(F)(F)F)cc3)CC2)C1 (centres unmarked) [Compound A, reference compound]	–
–	28	–	O=C(N1CCN(c2ccc(C(F)(F)F)cc2)CC1)C12CCCC1CC(N1CCC(c3ccccc3)CC1)C2 (centres unmarked) [Compound B, reference compound]	–
0.694	2.5	0.614	CO[C@@H]1COCC[C@@H]1N[C@@H]1C[C@H]2CCC[C@@]2(C(=O)N2C[C@H]3C[C@@H]2CN3c2cc(C(F)(F)F)ccn2)C1 [Example 3, 1,5-anhydro-2,3-dideoxy-4-O-methyl-3-{[(2R,3aR,6aR)-3a-({(1R,4R)-5-[4-(trifluoromethyl)pyridin-2-yl]-2,5-diazabicyclo[2.2.1]hept-2-yl}carbonyl)octahydropentalen-2-yl]amino}-D-erythro-pentitol]	–
> 6.94	25	> 6.14	CO[C@@H]1COCC[C@H]1N[C@@H]1C[C@H]2CCC[C@@]2(C(=O)N2C[C@H]3C[C@@H]2CN3c2cc(C(F)(F)F)ccn2)C1 [Example 4, 1,5-anhydro-2,3-dideoxy-4-O-methyl-3-{[(2R,3aR,6aR)-3a-({(1R,4R)-5-[4-(trifluoromethyl)pyridin-2-yl]-2,5-diazabicyclo[2.2.1]hept-2-yl}carbonyl)octahydropentalen-2-yl]amino}-D-threo-pentitol]	–
0.007	–	–	CO[C@@H]1COCC[C@@H]1N[C@@H]1C[C@H]2CCC[C@@]2(C(=O)N2C[C@@H]3C[C@H]2CN3c2cc(C(F)(F)F)cnn2)C1 [Example 5, 1,5-anhydro-2,3-dideoxy-4-O-methyl-3-{[(2R,3aR,6aR)-3a-({(1S,4S)-5-[5-(trifluoromethyl)pyridazin-3-yl]-2,5-diazabicyclo[2.2.1]hept-2-yl}carbonyl)octahydropentalen-2-yl]amino}-D-erythro-pentitol]	–
0.074	–	–	CO[C@@H]1COCC[C@@H]1N[C@@H]1C[C@H]2CCC[C@@]2(C(=O)N2C[C@@H]3C[C@H]2CN3c2cc(C(F)(F)F)cc(C)n2)C1 [Example 11, 1,5-anhydro-2,3-dideoxy-4-O-methyl-3-{[(2R,3aR,6aR)-3a-({(1S,4S)-5-[6-methyl-4-(trifluoromethyl)pyridin-2-yl]-2,5-diazabicyclo[2.2.1]hept-2-yl}carbonyl)octahydropentalen-2-yl]amino}-D-erythro-pentitol]	–
0.091	0.821	0.201	CO[C@@H]1COCC[C@@H]1N[C@@H]1C[C@H]2CCC[C@@]2(C(=O)N2C[C@@H]3C[C@H]2CN3c2nccc(C(F)(F)F)c2F)C1 [Example 21, 1,5-anhydro-2,3-dideoxy-3-{[(2R,3aR,6aR)-3a-({(1S,4S)-5-[3-fluoro-4-(trifluoromethyl)pyridin-2-yl]-2,5-diazabicyclo[2.2.1]hept-2-yl}carbonyl)octahydropentalen-2-yl]amino}-4-O-methyl-D-erythro-pentitol]	–
0.158	1.11	0.272	CO[C@@H]1COCC[C@@H]1N[C@@H]1C[C@H]2CCC[C@@]2(C(=O)N2C[C@@H]3C[C@H]2CN3c2cccc(C(F)(F)F)c2C)C1 [Example 23, 1,5-anhydro-2,3-dideoxy-4-O-methyl-3-{[(2R,3aR,6aR)-3a-({(1S,4S)-5-[2-methyl-3-(trifluoromethyl)phenyl]-2,5-diazabicyclo[2.2.1]hept-2-yl}carbonyl)octahydropentalen-2-yl]amino}-D-erythro-pentitol]	–
0.116	1.39	0.341	CO[C@@H]1COCC[C@@H]1N[C@@H]1C[C@H]2CCC[C@@]2(C(=O)N2C[C@@H]3C[C@H]2CN3c2cc(C)cc(C(F)(F)F)c2)C1 [Example 24, 1,5-anhydro-2,3-dideoxy-4-O-methyl-3-{[(2R,3aR,6aR)-3a-({(1S,4S)-5-[3-methyl-5-(trifluoromethyl)phenyl]-2,5-diazabicyclo[2.2.1]hept-2-yl}carbonyl)octahydropentalen-2-yl]amino}-D-erythro-pentitol]	–
0.022	1.02	0.25	COc1ccc(N2C[C@@H]3C[C@H]2CN3C(=O)[C@@]23CCC[C@@H]2C[C@@H](N[C@H]2CCOC[C@H]2OC)C3)cc1C(F)(F)F [Example 31, 1,5-anhydro-2,3-dideoxy-3-{[(2R,3aR,6aR)-3a-({(1S,4S)-5-[4-methoxy-3-(trifluoromethyl)phenyl]-2,5-diazabicyclo[2.2.1]hept-2-yl}carbonyl)octahydropentalen-2-yl]amino}-4-O-methyl-D-erythro-pentitol]	–

Structure (SMILES)	Kb (rat CCR2) [µM]	IC50 (human CCR2B; calcium flux, human MCP-1 2 nM) [µM]	Kb (human CCR2B) [µM]	IC50 (human CCR2B) [µM]
CO[C@@H]1COCC[C@@H]1N[C@@H]1C[C@H]2CCC[C@@]2(C(=O)N2[C@@H]3CC[C@H]2CN(c2cc(C(F)(F)F)ccn2)C3)C1 [Example 8, 1,5-anhydro-2,3-dideoxy-4-O-methyl-3-{[(2R,3aR,6aR)-3a-({(1R,5S)-3-[4-(trifluoromethyl)pyridin-2-yl]-3,8-diazabicyclo[3.2.1]oct-8-yl}carbonyl)octahydropentalen-2-yl]amino}-D-erythro-pentitol]	> 6.94	14.4	> 3.55	–
O=C(O)c1cccc(C2CCN([C@H]3C[C@H]4CCC[C@@]4(C(=O)N4C[C@@H]5C[C@H]4CN5c4cc(C(F)(F)F)ccn4)C3)CC2)c1 [Example 9, 3-{1-[(2S,3aR,6aR)-3a-({(1S,4S)-5-[4-(trifluoromethyl)pyridin-2-yl]-2,5-diazabicyclo[2.2.1]hept-2-yl}carbonyl)octahydropentalen-2-yl]piperidin-4-yl}benzoic acid]	0.022	–	0.116	0.47
O=C(O)c1cccc(C2CCN([C@@H]3C[C@H]4CCC[C@@]4(C(=O)N4C[C@@H]5C[C@H]4CN5c4cc(C(F)(F)F)ccn4)C3)CC2)c1 [Example 10, 3-{1-[(2R,3aR,6aR)-3a-({(1S,4S)-5-[4-(trifluoromethyl)pyridin-2-yl]-2,5-diazabicyclo[2.2.1]hept-2-yl}carbonyl)octahydropentalen-2-yl]piperidin-4-yl}benzoic acid]	0.038	1.6	0.394	–
CO[C@@H]1COCC[C@@H]1N[C@@H]1C[C@H]2CCC[C@@]2(C(=O)N2C[C@@H]3C[C@H]2CN3c2cccc(C(F)(F)F)c2F)C1 [Example 17, 1,5-anhydro-2,3-dideoxy-3-{[(2R,3aR,6aR)-3a-({(1S,4S)-5-[2-fluoro-3-(trifluoromethyl)phenyl]-2,5-diazabicyclo[2.2.1]hept-2-yl}carbonyl)octahydropentalen-2-yl]amino}-4-O-methyl-D-erythro-pentitol]	0.16	1.29	0.316	–
CO[C@@H]1COCC[C@@H]1N[C@@H]1C[C@H]2CCC[C@@]2(C(=O)N2C[C@@H]3C[C@H]2CN3c2ncccc2C(F)(F)F)C1 [Example 33, 1,5-anhydro-2,3-dideoxy-4-O-methyl-3-{[(2R,3aR,6aR)-3a-({(1S,4S)-5-[3-(trifluoromethyl)pyridin-2-yl]-2,5-diazabicyclo[2.2.1]hept-2-yl}carbonyl)octahydropentalen-2-yl]amino}-D-erythro-pentitol]	> 1.33	–	> 6.14	25
CO[C@@H]1COCC[C@@H]1N[C@@H]1C[C@H]2CCC[C@@]2(C(=O)N2C[C@@H]3C[C@H]2CN3c2ccc(C(F)(F)F)cn2)C1 [Example 34, 1,5-anhydro-2,3-dideoxy-4-O-methyl-3-{[(2R,3aR,6aR)-3a-({(1S,4S)-5-[5-(trifluoromethyl)pyridin-2-yl]-2,5-diazabicyclo[2.2.1]hept-2-yl}carbonyl)octahydropentalen-2-yl]amino}-D-erythro-pentitol]	0.342	–	0.682	2.78
